Tests used:
Assay type in all cases: in vivo
[1] = system: ragweed (common ragweed, Ambrosia elatior); test: Test A postemergence; conditions: Ambrosia artemisiifolia, post-emergence, 240 h, postemergence; for pest or weed control at 125 g/ha: 125 g ai/ha, visual injury vs untreated controls after approx. 10 d, 0 = no effect, 100 = complete control, read-out: Ragweed plant response rating (0 to 100 scale); for pest or weed control at 500 g/ha: 500 g ai/ha, 0 to 100 scale, 0 is no effect, 100 is complete control, read-out: Ragweed plant response rating
Summary of the method: (§1)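 Greenhouse, ~10 d after spray; visual injury vs untreated controls, 0 = no effect, 100 = complete control. Preemergence: directed soil spray over planted seeds. Postemergence: plants 2–10 cm, 1–2 leaf stage. Loam/sand blend. Compound in non-phytotoxic solvent with surfactant.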

[2] = system: Galium (catchweed bedstraw, Galium aparine); test: Test A postemergence; conditions: Galium, post-emergence, 240 h, postemergence; for pest or weed control at 125 g/ha: 125 g ai/ha, visual injury vs untreated controls after approx. 10 d, 0 = no effect, 100 = complete control, read-out: Galium plant response rating (0 to 100 scale); for pest or weed control at 500 g/ha: 500 g ai/ha, 0 to 100 scale, 0 is no effect, 100 is complete control, read-out: Galium plant response rating
Summary of the method: as §1

[3] = system: wheat (Triticum aestivum); test: Test A postemergence; conditions: Triticum aestivum, post-emergence, 240 h, postemergence; for plant injury at 125 g/ha: 125 g ai/ha, visual injury vs untreated controls after approx. 10 d, 0 = no effect, 100 = complete control, read-out: Wheat plant response rating (0 to 100 scale); for plant injury at 500 g/ha: 500 g ai/ha, 0 to 100 scale, 0 is no effect, 100 is complete control, read-out: Wheat plant response rating
Summary of the method: as §1

[4] = system: blackgrass (Alopecurus myosuroides); test: Test A postemergence; conditions: Alopecurus myosuroides, post-emergence, 240 h, postemergence; for pest or weed control at 125 g/ha: 125 g ai/ha, visual injury vs untreated controls after approx. 10 d, 0 = no effect, 100 = complete control, read-out: Blackgrass plant response rating (0 to 100 scale); for pest or weed control at 500 g/ha: 500 g ai/ha, 0 to 100 scale, 0 is no effect, 100 is complete control, read-out: Blackgrass plant response rating
Summary of the method: as §1

[5] = system: ryegrass, Italian (Italian ryegrass, Lolium multiflorum); test: Test A postemergence; conditions: Lolium multiflorum, post-emergence, 240 h, postemergence; for pest or weed control at 125 g/ha: 125 g ai/ha, visual injury vs untreated controls after approx. 10 d, 0 = no effect, 100 = complete control, read-out: Ryegrass, Italian plant response rating (0 to 100 scale); for pest or weed control at 500 g/ha: 500 g ai/ha, 0 to 100 scale, 0 is no effect, 100 is complete control, read-out: Ryegrass, Italian plant response rating
Summary of the method: as §1

[6] = system: pigweed (Amaranthus retroflexus); test: Test A postemergence; conditions: Amaranthus retroflexus, post-emergence, 240 h, postemergence; for pest or weed control at 125 g/ha: 125 g ai/ha, visual injury vs untreated controls after approx. 10 d, 0 = no effect, 100 = complete control, read-out: Pigweed plant response rating (0 to 100 scale); for pest or weed control at 500 g/ha: 500 g ai/ha, 0 to 100 scale, 0 is no effect, 100 is complete control, read-out: Pigweed plant response rating
Summary of the method: as §1

[7] = system: giant foxtail (Setaria faberii); test: Test A postemergence; conditions: Setaria faberi, post-emergence, 240 h, postemergence; for pest or weed control at 125 g/ha: 125 g ai/ha, visual injury vs untreated controls after approx. 10 d, 0 = no effect, 100 = complete control, read-out: Foxtail, Giant plant response rating (0 to 100 scale); for pest or weed control at 500 g/ha: 500 g ai/ha, 0 to 100 scale, 0 is no effect, 100 is complete control, read-out: Foxtail, Giant plant response rating
Summary of the method: as §1

Kochia (Kochia scoparia) [8] = test: Test A postemergence; conditions: Bassia scoparia, post-emergence, 240 h, postemergence; for pest or weed control at 125 g/ha: 125 g ai/ha, visual injury vs untreated controls after approx. 10 d, 0 = no effect, 100 = complete control, read-out: Kochia plant response rating (0 to 100 scale); for pest or weed control at 500 g/ha: 500 g ai/ha, 0 to 100 scale, 0 is no effect, 100 is complete control, read-out: Kochia plant response rating
Summary of the method: as §1

corn (Zea mays) = test: Test A postemergence; conditions: Zea mays, post-emergence, 240 h, postemergence; for plant injury at 125 g/ha: 125 g ai/ha, visual injury vs untreated controls after approx. 10 d, 0 = no effect, 100 = complete control, read-out: Corn plant response rating (0 to 100 scale); for plant injury at 500 g/ha: 500 g ai/ha, 0 to 100 scale, 0 is no effect, 100 is complete control, read-out: Corn plant response rating
Summary of the method: as §1

[9] = system: ragweed (common ragweed, Ambrosia elatior); test: Test A preemergence; conditions: Ambrosia artemisiifolia, pre-emergence, 240 h, preemergence, 0 to 100 scale where 0 is no effect and 100 is complete control, read-out: Ragweed plant response rating; for pest or weed control at 125 g/ha: 125 g ai/ha, visual injury rating, approximately 10 d; for pest or weed control at 500 g/ha: 500 g ai/ha
Summary of the method: as §1

[10] = system: ryegrass, Italian (Italian ryegrass, Lolium multiflorum); test: Test A preemergence; conditions: Lolium multiflorum, pre-emergence, 240 h, preemergence, 0 to 100 scale where 0 is no effect and 100 is complete control, read-out: Ryegrass, Italian plant response rating; for pest or weed control at 125 g/ha: 125 g ai/ha, visual injury rating, approximately 10 d; for pest or weed control at 500 g/ha: 500 g ai/ha
Summary of the method: as §1

[11] = system: pigweed (Amaranthus retroflexus); test: Test A preemergence; conditions: Amaranthus retroflexus, pre-emergence, 240 h, preemergence, 0 to 100 scale where 0 is no effect and 100 is complete control, read-out: Pigweed plant response rating; for pest or weed control at 125 g/ha: 125 g ai/ha, visual injury rating, approximately 10 d; for pest or weed control at 500 g/ha: 500 g ai/ha
[12] = system: giant foxtail (Setaria faberii); test: Test A preemergence; conditions: Setaria faberi, pre-emergence, 240 h, preemergence, 0 to 100 scale where 0 is no effect and 100 is complete control, read-out: Foxtail, Giant plant response rating; for pest or weed control at 125 g/ha: 125 g ai/ha, visual injury rating, approximately 10 d; for pest or weed control at 500 g/ha: 500 g ai/ha
Summary of the method: as §1

[13] = system: barnyardgrass (Echinochloa crus-galli); test: Test A preemergence; conditions: Echinochloa crus-galli, pre-emergence, 240 h, preemergence, 0 to 100 scale where 0 is no effect and 100 is complete control, read-out: Barnyardgrass plant response rating; for pest or weed control at 125 g/ha: 125 g ai/ha, visual injury rating, approximately 10 d; for pest or weed control at 500 g/ha: 500 g ai/ha
Summary of the method: as §1

Kochia (Kochia scoparia) [14] = test: Test A preemergence; conditions: Bassia scoparia, pre-emergence, 240 h, preemergence, 0 to 100 scale where 0 is no effect and 100 is complete control, read-out: Kochia plant response rating; for pest or weed control at 125 g/ha: 125 g ai/ha, visual injury rating, approximately 10 d; for pest or weed control at 500 g/ha: 500 g ai/ha
Summary of the method: as §1

SMILES	pest or weed control at 125 g/ha [1]	pest or weed control at 500 g/ha [1]	pest or weed control at 125 g/ha [2]	pest or weed control at 500 g/ha [2]	plant injury at 125 g/ha [3]	plant injury at 500 g/ha [3]	pest or weed control at 125 g/ha [4]	pest or weed control at 500 g/ha [4]	pest or weed control at 125 g/ha [5]	pest or weed control at 500 g/ha [5]	pest or weed control at 125 g/ha [6]	pest or weed control at 500 g/ha [6]	pest or weed control at 125 g/ha [7]	pest or weed control at 500 g/ha [7]	pest or weed control at 125 g/ha (Kochia (Kochia scoparia) [8])	pest or weed control at 500 g/ha (Kochia (Kochia scoparia) [8])	plant injury at 125 g/ha (corn (Zea mays))	plant injury at 500 g/ha (corn (Zea mays))	pest or weed control at 125 g/ha [9]	pest or weed control at 500 g/ha [9]	also measured
COc1ccc([C@H]2CN(C)C(=O)[C@@H]2C(=O)Nc2cccc(F)c2F)c(OC)c1 [Compound 1209]	0%	0%	0%	30%	0%	20%	0%	30%	0%	20%	0%	0%	80%	90%	0%	50%	0%	0%	60%	90%	pest or weed control at 125 g/ha [10]: 0%; pest or weed control at 500 g/ha [10]: 50%; pest or weed control at 125 g/ha [11]: 0%; pest or weed control at 500 g/ha [11]: 0%; pest or weed control at 125 g/ha [12]: 90%; pest or weed control at 500 g/ha [12]: 100%; pest or weed control at 125 g/ha [13]: 90%; pest or weed control at 500 g/ha [13]: 90%; pest or weed control at 125 g/ha (Kochia (Kochia scoparia) [14]): 60%; pest or weed control at 500 g/ha (Kochia (Kochia scoparia) [14]): 90%
COc1cc([C@H]2CN(C)C(=O)[C@@H]2C(=O)Nc2cccc(F)c2F)cc(OC)c1OC [Compound 1210]	0%	0%	0%	0%	0%	60%	0%	50%	30%	60%	0%	0%	90%	90%	0%	0%	0%	50%	0%	0%	pest or weed control at 125 g/ha [10]: 20%; pest or weed control at 500 g/ha [10]: 50%; pest or weed control at 125 g/ha [11]: 0%; pest or weed control at 500 g/ha [11]: 0%; pest or weed control at 125 g/ha [12]: 100%; pest or weed control at 500 g/ha [12]: 100%; pest or weed control at 125 g/ha [13]: 90%; pest or weed control at 500 g/ha [13]: 100%; pest or weed control at 125 g/ha (Kochia (Kochia scoparia) [14]): 0%; pest or weed control at 500 g/ha (Kochia (Kochia scoparia) [14]): 10%

Source: patent US12077503B2, “Substituted cyclic amides and their use as herbicides” (FMC CORPORATION, priority 2015, dated 2024)
